Source: BindingDB's records for doi:10.1007/s002100000340 (University of Illinois At Chicago, 2001)

How the values were obtained:
[1] = molecular target: T1, Adenosine receptor A1 (Gallus gallus, UniProt P49892)
T1 sequence (P49892 whole entry): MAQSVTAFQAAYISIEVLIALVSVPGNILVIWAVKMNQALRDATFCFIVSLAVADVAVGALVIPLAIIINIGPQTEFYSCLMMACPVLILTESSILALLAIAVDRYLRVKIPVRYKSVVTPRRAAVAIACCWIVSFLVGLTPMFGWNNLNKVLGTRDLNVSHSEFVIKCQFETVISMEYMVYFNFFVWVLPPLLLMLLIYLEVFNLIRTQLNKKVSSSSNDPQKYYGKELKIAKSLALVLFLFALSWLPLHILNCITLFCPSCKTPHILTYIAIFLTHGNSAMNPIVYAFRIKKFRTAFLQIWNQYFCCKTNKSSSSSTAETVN

[2] = molecular target: T2, Adenosine receptor A3 (Gallus gallus, UniProt A0A8V1ACC1)
T2 sequence (A0A8V1ACC1 whole entry): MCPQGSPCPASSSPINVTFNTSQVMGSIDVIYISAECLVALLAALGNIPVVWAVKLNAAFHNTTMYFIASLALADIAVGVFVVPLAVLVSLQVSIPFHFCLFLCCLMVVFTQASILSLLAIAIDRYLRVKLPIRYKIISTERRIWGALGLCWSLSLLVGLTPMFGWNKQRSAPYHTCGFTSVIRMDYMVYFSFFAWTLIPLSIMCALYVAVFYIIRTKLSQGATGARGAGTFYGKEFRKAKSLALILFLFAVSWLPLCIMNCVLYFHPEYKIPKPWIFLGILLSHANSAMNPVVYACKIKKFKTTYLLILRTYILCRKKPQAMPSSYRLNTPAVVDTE

Ki [1] [nM]	Ki [2] [nM]	Compound
0.72	1.13	CC(Cc1ccccc1)Nc1ncnc2c1ncn2C1OC(CO)C(O)C1O (stereo unspecified) [R-N6-(2-phenylisopropyl) adenosine]
4.01	6.82	OCC1OC(n2cnc3c(NC4CCCC4)nc(Cl)nc32)C(O)C1O (stereo unspecified) [2-(2-Chloro-6-cyclopentylamino-purin-9-yl)-5-hydroxymethyl-tetrahydro-furan-3,4-diol]
167	36.6	CCCn1c(=O)c2[nH]c(-c3ccc(C=CC(=O)O)cc3)nc2n(CCC)c1=O [NSC_129447]
	3310	Cc1ccc(-c2oc3ccc(Cl)cc3c(=O)c2Cl)c(OC(C)C)c1
11.2	53.3	CCCn1c(=O)c2nc[nH]c2n(CCC)c1=O
74		CNC(=O)[C@H]1O[C@@H](n2cnc3c(NCc4cccc(I)c4)nc(Cl)nc32)[C@H](O)[C@@H]1O [2-Cl-IB-MECA]
6.83	6.79	Nc1ncnc2c1ncn2[C@@H]1O[C@H](C(=O)NCc2ccccc2)[C@@H](O)[C@H]1O [B-NECA]
16.3	2.8	CNC(=O)C1OC(n2cnc3c(NCc4cccc(I)c4)ncnc32)C(O)C1O (stereo unspecified) [3,4-dihydroxy-5-(6-{[(3-iodophenyl)methyl]amino}-9H-purin-9-yl)-N-methyloxolane-2-carboxamide]
3430	990	CCOC(=O)C1=C(c2ccccc2)N=C(C)C(C(=O)OCC)C1/C=C/c1ccccc1 (stereo unspecified)
1.66	17.1	OC[C@H]1O[C@@H](n2cnc3c(NC4CCCCC4)ncnc32)[C@H](O)[C@@H]1O [CHA]
	56.1	CC(C=C[C@@]1(O)C(C)=CC(=O)CC1(C)C)=CC(=O)O [CAS_14375-45-2]

Compound	Ki [1] [nM]	Ki [2] [nM]
CCNC(=O)[C@H]1O[C@@H](n2cnc3c(N)ncnc32)[C@H](O)[C@@H]1O	23.4	37.1
